From PubChem BioAssay AID1963973 (Molecular Pharmacology Branch, DTP, NCI, 2024)

Test system: 883617-216-R-J1-PDC tumor spheroids, viability
Test: Anticancer human tumor 883617-216-R-J1-PDC patient-derived bladder carcinoma cell line growth inhibition [PI3K]
Conditions: spheroids with HUVEC and MSC; for IC50: curve of first compound; for viability, T/C: stronger effect = lower value; active = viability on the fitted dose curve at most 10% of control; inactive = the rest
In short: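 Multi-cell spheroids combine tumor cells with HUVEC and human MSCs, treated with targeted agents alone or with inavolisib, alpelisib, duvelisib or copanlisib. Concentrations fall in half-log steps from at or near clinical Cmax, or from 10 microM where Cmax is unknown; viability read-out.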

[1] = second compound 0.00316 µM, first compound 0.0316 µM
[2] = second compound 0.00316 µM, first compound 0.1 µM
[3] = second compound 0.00316 µM, first compound 0.316 µM
[4] = second compound 0.00316 µM, first compound 1 µM
[5] = second compound 0.00316 µM, first compound 3.16 µM
[6] = second compound 0.00316 µM, first compound 10 µM
[7] = second compound 0.01 µM, first compound 0.0316 µM
[8] = second compound 0.01 µM, first compound 0.1 µM
[9] = second compound 0.01 µM, first compound 0.316 µM
[10] = second compound 0.01 µM, first compound 1 µM
[11] = second compound 0.01 µM, first compound 3.16 µM
[12] = second compound 0.01 µM, first compound 10 µM
[13] = second compound 0.0316 µM, first compound 0.0316 µM
[14] = second compound 0.0316 µM, first compound 0.1 µM
[15] = second compound 0.0316 µM, first compound 0.316 µM
[16] = second compound 0.0316 µM, first compound 1 µM
[17] = second compound 0.0316 µM, first compound 3.16 µM
[18] = second compound 0.0316 µM, first compound 10 µM
[19] = second compound 0.1 µM, first compound 0.0316 µM
[20] = second compound 0.1 µM, first compound 0.1 µM
[21] = second compound 0.1 µM, first compound 0.316 µM
[22] = second compound 0.1 µM, first compound 1 µM
[23] = second compound 0.1 µM, first compound 3.16 µM
[24] = second compound 0.1 µM, first compound 10 µM
[25] = second compound 0.316 µM, first compound 0.0316 µM
[26] = second compound 0.316 µM, first compound 0.1 µM
[27] = second compound 0.316 µM, first compound 0.316 µM
[28] = second compound 0.316 µM, first compound 1 µM
[29] = second compound 0.316 µM, first compound 3.16 µM
[30] = second compound 0.316 µM, first compound 10 µM
[31] = second compound 1 µM, first compound 0.0316 µM
[32] = second compound 1 µM, first compound 0.1 µM
[33] = second compound 1 µM, first compound 0.316 µM
[34] = second compound 1 µM, first compound 1 µM
[35] = second compound 1 µM, first compound 3.16 µM
[36] = second compound 1 µM, first compound 10 µM
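Also: spheroids exposed to agents for 7 days before the viability read.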

C#Cc1c(F)ccc2cc(O)cc(-c3ncc4c(N5CC6CCC(C5)N6)nc(OCC56CCCN5CC(F)C6)nc4c3F)c12 (stereo not given) + CC(Nc1ccc2c(c1)OCCn1cc(N3C(=O)OCC3C(F)F)nc1-2)C(N)=O
> 10000 nM: IC50 (second compound 0.00316 µM) | IC50 (second compound 0.01 µM)
6510 nM: IC50 (second compound 0.0316 µM)
inactive: viability, T/C [1] 85.3% | viability, T/C [2] 89.7% | viability, T/C [3] 84.8% | viability, T/C [4] 91.2% | viability, T/C [5] 79.6% | viability, T/C [6] 54.8% | viability, T/C [7] 87.9% | viability, T/C [8] 88.4% | viability, T/C [9] 88.3% | viability, T/C [10] 85% | viability, T/C [11] 74.3% | viability, T/C [12] 53.2% | viability, T/C [13] 79.9% | viability, T/C [14] 75.3% | viability, T/C [15] 64.9% | viability, T/C [16] 88.5% | viability, T/C [17] 62.4% | viability, T/C [18] 40.2% | viability, T/C [19] 41.1% | viability, T/C [20] 39.7% | viability, T/C [21] 42.7% | viability, T/C [22] 39.6% | viability, T/C [23] 31% | viability, T/C [24] 21% | viability, T/C [25] 27.6% | viability, T/C [26] 21.4% | viability, T/C [27] 21.4% | viability, T/C [28] 24.6% | viability, T/C [29] 16.7% | viability, T/C [30] 16.8% | viability, T/C [31] 13.4% | viability, T/C [32] 16.9% | viability, T/C [33] 17.1% | viability, T/C [34] 12.8% | viability, T/C [35] 14.2% | viability, T/C [36] 8%
< 31.6 nM: IC50 (second compound 0.1 µM) | IC50 (second compound 0.316 µM) | IC50 (second compound 1 µM)

C=CC(=O)N1CCN(c2nc(=O)n(-c3c(C)ccnc3C(C)C)c3nc(-c4c(O)cccc4F)c(F)cc23)C(C)C1 (stereo not given) + CC(Nc1ccc2c(c1)OCCn1cc(N3C(=O)OCC3C(F)F)nc1-2)C(N)=O
< 31.6 nM: IC50 (second compound 0.0316 µM) | IC50 (second compound 0.1 µM) | IC50 (second compound 0.316 µM) | IC50 (second compound 1 µM)
> 10000 nM: IC50 (second compound 0.00316 µM)
inactive: viability, T/C [1] 59% | viability, T/C [2] 49.2% | viability, T/C [3] 52.5% | viability, T/C [4] 70.5% | viability, T/C [5] 70.8% | viability, T/C [6] 56.5% | viability, T/C [7] 57.8% | viability, T/C [8] 51.8% | viability, T/C [9] 47.7% | viability, T/C [10] 44.5% | viability, T/C [11] 56.5% | viability, T/C [12] 61.1% | viability, T/C [13] 45% | viability, T/C [14] 38.2% | viability, T/C [15] 30.8% | viability, T/C [16] 40.9% | viability, T/C [17] 42.6% | viability, T/C [18] 49.7% | viability, T/C [19] 25.3% | viability, T/C [20] 21.6% | viability, T/C [21] 19.3% | viability, T/C [22] 25.7% | viability, T/C [23] 30.4% | viability, T/C [24] 25.3% | viability, T/C [25] 13.5% | viability, T/C [26] 13.4% | viability, T/C [27] 11% | viability, T/C [28] 14.6% | viability, T/C [29] 15.5% | viability, T/C [30] 17.3% | viability, T/C [31] 10.3%
31.6 nM: IC50 (second compound 0.01 µM)
active: viability, T/C [32] 9.98% | viability, T/C [33] 7.7% | viability, T/C [34] 7.88% | viability, T/C [35] 12.1% | viability, T/C [36] 9.67%

CC(Cn1ccc(-c2ccc(C#N)c(Cl)c2)n1)NC(=O)c1cc(C(C)O)[nH]n1 (stereo not given) + CC(Nc1ccc2c(c1)OCCn1cc(N3C(=O)OCC3C(F)F)nc1-2)C(N)=O
inactive: viability, T/C [1] 86.4% | viability, T/C [2] 85.9% | viability, T/C [3] 84.1% | viability, T/C [4] 80.4% | viability, T/C [5] 90.8% | viability, T/C [6] 73.1% | viability, T/C [7] 84% | viability, T/C [8] 74.7% | viability, T/C [9] 80.1% | viability, T/C [10] 84% | viability, T/C [11] 90.5% | viability, T/C [12] 86.5% | viability, T/C [13] 64.2% | viability, T/C [14] 79.4% | viability, T/C [15] 79.1% | viability, T/C [16] 80.3% | viability, T/C [17] 74.8% | viability, T/C [18] 67.4% | viability, T/C [19] 46.6% | viability, T/C [20] 49.3% | viability, T/C [21] 55.1% | viability, T/C [22] 48.9% | viability, T/C [23] 43.7% | viability, T/C [24] 44.9% | viability, T/C [25] 25.3% | viability, T/C [26] 27.9% | viability, T/C [27] 27.9% | viability, T/C [28] 26.9% | viability, T/C [29] 26.8% | viability, T/C [30] 23.2% | viability, T/C [31] 15.8% | viability, T/C [32] 15% | viability, T/C [33] 17% | viability, T/C [34] 14.9% | viability, T/C [35] 17.4% | viability, T/C [36] 17.3%
> 10000 nM: IC50 (second compound 0.00316 µM) | IC50 (second compound 0.01 µM) | IC50 (second compound 0.0316 µM)
< 31.6 nM: IC50 (second compound 0.1 µM) | IC50 (second compound 0.316 µM) | IC50 (second compound 1 µM)

CC1(C)CCC(Nc2ncc(C(F)(F)F)c(-c3c[nH]c4c(P(C)(C)=O)c(C#N)ccc34)n2)CN1 (stereo not given) + CC(Nc1ccc2c(c1)OCCn1cc(N3C(=O)OCC3C(F)F)nc1-2)C(N)=O
< 31.6 nM: IC50 (second compound 0.00316 µM) | IC50 (second compound 0.01 µM) | IC50 (second compound 0.0316 µM) | IC50 (second compound 0.1 µM) | IC50 (second compound 0.316 µM) | IC50 (second compound 1 µM)
active: viability, T/C [5] 6.49% | viability, T/C [6] 0.36% | viability, T/C [11] 6.21% | viability, T/C [12] 0.37% | viability, T/C [17] 4.74% | viability, T/C [18] 0.17% | viability, T/C [23] 4.58% | viability, T/C [24] 0.1% | viability, T/C [28] 10.8% | viability, T/C [29] 3% | viability, T/C [30] 0.12% | viability, T/C [33] 9.92% | viability, T/C [34] 12.2% | viability, T/C [35] 2.77% | viability, T/C [36] 0.33%
inactive: viability, T/C [1] 31.5% | viability, T/C [2] 17.9% | viability, T/C [3] 17.6% | viability, T/C [4] 14% | viability, T/C [7] 30.4% | viability, T/C [8] 23.2% | viability, T/C [9] 19.7% | viability, T/C [10] 18.7% | viability, T/C [13] 30.2% | viability, T/C [14] 18.7% | viability, T/C [15] 21.8% | viability, T/C [16] 14.3% | viability, T/C [19] 25.5% | viability, T/C [20] 17.6% | viability, T/C [21] 19.1% | viability, T/C [22] 12.2% | viability, T/C [25] 21.6% | viability, T/C [26] 15.4% | viability, T/C [27] 14.2% | viability, T/C [31] 13.9% | viability, T/C [32] 10.4%

Cn1nccc1Nc1nccc(-c2ccn(C(CO)c3ccc(Cl)c(F)c3)c(=O)c2)n1 (stereo not given) + CC(Nc1ccc2c(c1)OCCn1cc(N3C(=O)OCC3C(F)F)nc1-2)C(N)=O
inactive: viability, T/C [1] 83.2% | viability, T/C [2] 67.5% | viability, T/C [3] 80.3% | viability, T/C [4] 75.6% | viability, T/C [5] 80.1% | viability, T/C [6] 48.1% | viability, T/C [7] 85.6% | viability, T/C [8] 74.7% | viability, T/C [9] 77.3% | viability, T/C [10] 64.2% | viability, T/C [11] 58.2% | viability, T/C [12] 50.1% | viability, T/C [13] 66.5% | viability, T/C [14] 65.9% | viability, T/C [15] 67.1% | viability, T/C [16] 48.1% | viability, T/C [17] 35.9% | viability, T/C [18] 34.2% | viability, T/C [19] 44% | viability, T/C [20] 45.1% | viability, T/C [21] 38.1% | viability, T/C [22] 37.1% | viability, T/C [23] 27.6% | viability, T/C [24] 22.4% | viability, T/C [25] 25.1% | viability, T/C [26] 22.8% | viability, T/C [27] 17.2% | viability, T/C [28] 16.2% | viability, T/C [29] 15.2% | viability, T/C [30] 9.06% | viability, T/C [31] 14.9% | viability, T/C [32] 13.6% | viability, T/C [33] 12% | viability, T/C [34] 11%
> 10000 nM: IC50 (second compound 0.01 µM)
9310 nM: IC50 (second compound 0.00316 µM)
888 nM: IC50 (second compound 0.0316 µM)
active: viability, T/C [35] 9.01% | viability, T/C [36] 6.11%
< 31.6 nM: IC50 (second compound 0.1 µM) | IC50 (second compound 0.316 µM) | IC50 (second compound 1 µM)
